Results reported in PMC2394453 (British Journal of Cancer, 2003).

Test: Plasma pharmacokinetics of simvastatin and simvastatin hydroxy acid after oral simvastatin alone and combined with imatinib in CML patients (LC/MS/MS)
Conditions: for t1/2: simvastatin in plasma, mean±s.d., in h

Work on `CCC(C)(C)C(=O)O[C@H]1C[C@@H](C)C=C2C=C[C@H](C)[C@H](CC[C@@H]3C[C@@H](O)CC(=O)O3)[C@H]21` [Simvastatin] yielded a Tmax (both, human, plasma, po, 40 mg) of 1 h, a Vd/F (both, human, plasma, po, 40 mg) of 3120 ± 2750 L and a half-life (both, human, plasma, po, 40 mg) of 1.4 h. For the same molecule, the “mean reduction of total-body clearance from plasma (CL/F)” value (simvastatin 40 mg coadministered with imatinib 400 mg, P<0.001) was 70%, the t1/2 (40 mg simvastatin oral alone (day 1)) was 1.4±0.8 and the t1/2 (40 mg simvastatin oral plus 400 mg imatinib oral (day 8)) was 2.7±1.3.
